Test results published in patent US6284269A, “Pharmaceutical compositions of meloxicam with improved solubility and bioavailability” (Hexal AG, priority 1997, dated 2001).
Values joined by “and” are separate entries in the source; they are usually repeats but may differ in a detail not shown here. Identical values can stand only once.

What was measured:
[1] = In vitro dissolution of cyclodextrin based meloxicam compositions under non-sink conditions (standard method); assay type: physicochemical
Method: The following standard method was used for the determination of the solution rate of the drug compositions: In vitro dissolution properties of the cyclodextrin based meloxicam compositions were studied under non-sink conditions in two different buffer systems, pH 1.3 and 7.6, respectively and in deionised water (pH=6.6) at 37° C.
(§1) The stirring rate was 160 r.p.m. […] Sampling time intervals were 5, 10, 15, 30, 45 and 60 minutes.

[2] = In vitro rate of dissolution of meloxicam composition at pH 1.2 (table 9); assay type: physicochemical; settings: 37° C., 60 min
Method: The following standard method was used for the determination of the solution rate of the drug compositions: In vitro dissolution properties of the cyclodextrin based […], respectively and in deionised water (pH=6.6) at 37° C.
as §1

Cc1cnc(NC(=O)C2=C(O)c3ccccc3S(=O)(=O)N2C)s1 [free meloxicam, meloxicam]
Dissolved meloxicam in solution ([1]; deionised water (pH = 6.6), 37° C., 5 min): 23 µg/mL | Dissolved meloxicam in solution ([1]; deionised water (pH = 6.6), 37° C., 10 min): 148 µg/mL | Dissolved meloxicam in solution ([1]; deionised water (pH = 6.6), 37° C., 15 min): 232 µg/mL | Dissolved meloxicam in solution ([1]; deionised water (pH = 6.6), 37° C., 30 min): 390 µg/mL | Dissolved meloxicam in solution ([1]; deionised water (pH = 6.6), 37° C., 45 min): 415 µg/mL | Dissolved meloxicam in solution ([1]; deionised water (pH = 6.6), 37° C., 60 min): 475 µg/mL | Dissolved meloxicam in solution ([1]; pH 1.3, 37° C., 5 min (tables 4, 11, 13)): 0.4 µg/mL and 0.30 µg/mL | Dissolved meloxicam in solution ([1]; pH 1.3, 37° C., 5 min, free meloxicam 130 mg, composition 1300 mg (table 7)): 0.45 µg/mL | Dissolved meloxicam in solution ([1]; pH 1.3, 37° C., 5 min, free meloxicam 130 mg, composition 1500 mg (tables 5, 6)): 0.45 µg/mL | Dissolved meloxicam in solution ([1]; pH 1.3, 37° C., 10 min (tables 4, 11, 13)): 0.6 µg/mL and 0.38 µg/mL | Dissolved meloxicam in solution ([1]; pH 1.3, 37° C., 10 min, free meloxicam 130 mg, composition 1300 mg (table 7)): 0.62 µg/mL | Dissolved meloxicam in solution ([1]; pH 1.3, 37° C., 10 min, free meloxicam 130 mg, composition 1500 mg (tables 5, 6)): 0.62 µg/mL | Dissolved meloxicam in solution ([1]; pH 1.3, 37° C., 15 min (tables 4, 11, 13)): 0.7 µg/mL and 0.44 µg/mL | Dissolved meloxicam in solution ([1]; pH 1.3, 37° C., 15 min, free meloxicam 130 mg, composition 1300 mg (table 7)): 0.67 µg/mL | Dissolved meloxicam in solution ([1]; pH 1.3, 37° C., 15 min, free meloxicam 130 mg, composition 1500 mg (tables 5, 6)): 0.67 µg/mL | Dissolved meloxicam in solution ([1]; pH 1.3, 37° C., 30 min (tables 4, 11, 13)): 0.7 µg/mL and 0.56 µg/mL | Dissolved meloxicam in solution ([1]; pH 1.3, 37° C., 30 min, free meloxicam 130 mg, composition 1300 mg (table 7)): 0.74 µg/mL | Dissolved meloxicam in solution ([1]; pH 1.3, 37° C., 30 min, free meloxicam 130 mg, composition 1500 mg (tables 5, 6)): 0.74 µg/mL | Dissolved meloxicam in solution ([1]; pH 1.3, 37° C., 45 min (tables 4, 11, 13)): 0.7 µg/mL and 0.59 µg/mL | Dissolved meloxicam in solution ([1]; pH 1.3, 37° C., 45 min, free meloxicam 130 mg, composition 1300 mg (table 7)): 0.73 µg/mL | Dissolved meloxicam in solution ([1]; pH 1.3, 37° C., 45 min, free meloxicam 130 mg, composition 1500 mg (tables 5, 6)): 0.73 µg/mL | Dissolved meloxicam in solution ([1]; pH 1.3, 37° C., 60 min (tables 4, 11, 13)): 0.6 µg/mL and 0.65 µg/mL | Dissolved meloxicam in solution ([1]; pH 1.3, 37° C., 60 min, free meloxicam 130 mg, composition 1300 mg (table 7)): 0.67 µg/mL | Dissolved meloxicam in solution ([1]; pH 1.3, 37° C., 60 min, free meloxicam 130 mg, composition 1500 mg (tables 5, 6)): 0.67 µg/mL | Dissolved meloxicam in solution ([1]; pH 7.6, 37° C., 5 min (tables 4, 11)): 38 µg/mL | Dissolved meloxicam in solution ([1]; pH 7.6, 37° C., 5 min, free meloxicam 130 mg, composition 1300 mg (table 7)): 38 µg/mL | Dissolved meloxicam in solution ([1]; pH 7.6, 37° C., 5 min, free meloxicam 130 mg, composition 1500 mg (tables 5, 6)): 38 µg/mL | Dissolved meloxicam in solution ([1]; pH 7.6, 37° C., 10 min (tables 4, 11)): 188 µg/mL and 218 µg/mL | Dissolved meloxicam in solution ([1]; pH 7.6, 37° C., 10 min, free meloxicam 130 mg, composition 1300 mg (table 7)): 218 µg/mL | Dissolved meloxicam in solution ([1]; pH 7.6, 37° C., 10 min, free meloxicam 130 mg, composition 1500 mg (tables 5, 6)): 218 µg/mL | Dissolved meloxicam in solution ([1]; pH 7.6, 37° C., 15 min (tables 4, 11)): 320 µg/mL | Dissolved meloxicam in solution ([1]; pH 7.6, 37° C., 15 min, free meloxicam 130 mg, composition 1300 mg (table 7)): 320 µg/mL | Dissolved meloxicam in solution ([1]; pH 7.6, 37° C., 15 min, free meloxicam 130 mg, composition 1500 mg (tables 5, 6)): 320 µg/mL | Dissolved meloxicam in solution ([1]; pH 7.6, 37° C., 30 min (tables 4, 11)): 390 µg/mL | Dissolved meloxicam in solution ([1]; pH 7.6, 37° C., 30 min, free meloxicam 130 mg, composition 1300 mg (table 7)): 390 µg/mL | Dissolved meloxicam in solution ([1]; pH 7.6, 37° C., 30 min, free meloxicam 130 mg, composition 1500 mg (tables 5, 6)): 390 µg/mL | Dissolved meloxicam in solution ([1]; pH 7.6, 37° C., 45 min (tables 4, 11)): 485 µg/mL | Dissolved meloxicam in solution ([1]; pH 7.6, 37° C., 45 min, free meloxicam 130 mg, composition 1300 mg (table 7)): 485 µg/mL | Dissolved meloxicam in solution ([1]; pH 7.6, 37° C., 45 min, free meloxicam 130 mg, composition 1500 mg (tables 5, 6)): 485 µg/mL | Dissolved meloxicam in solution ([1]; pH 7.6, 37° C., 60 min (tables 4, 11)): 550 µg/mL | Dissolved meloxicam in solution ([1]; pH 7.6, 37° C., 60 min, free meloxicam 130 mg, composition 1300 mg (table 7)): 550 µg/mL | Dissolved meloxicam in solution ([1]; pH 7.6, 37° C., 60 min, free meloxicam 130 mg, composition 1500 mg (tables 5, 6)): 550 µg/mL | meloxicam (dissolved) [2]: 0.8 µg/mL
